Species on record: Rattus norvegicus
Experiment: Open TG-GATES - Regimen: Daily Repeat
Assay type: toxicity, organism-based, Sprague-Dawley
Parameters: regimen Daily Repeat, gender Male, age 6 weeks
Conditions: in vivo, po, 1000 mg/kg, route gavage, dose level High; for APTT / Bas / Eos / Fbg / Hb / Ht / Lym / MCH / MCHC / MCV / Mono / Neu / PT / Plat / RBC / Ret / WBC: tissue Blood
[1] = 72 h, tissue Kidney, time 3 day
[2] = 72 h, tissue Plasma, time 3 day

Structure (SMILES): CNC(=C[N+](=O)[O-])NCCSCc1ccc(CN(C)C)o1 [RANITIDINE]
- TERMINAL_BW (72 h, time 3 day): 237.1 g
- APTT (72 h, time 3 day): 20.1 s
- Bas (72 h, time 3 day): 0%
- Eos (72 h, time 3 day): 1%
- Fbg (72 h, time 3 day): 231.6 mg/dL
- Hb (72 h, time 3 day): 13.6 g/dL
- Ht (72 h, time 3 day): 39.8%
- Lym (72 h, time 3 day): 78.4%
- MCH (72 h, time 3 day): 21.5 pg
- MCHC (72 h, time 3 day): 34.1%
- MCV (72 h, time 3 day): 63.1 fL
- Mono (72 h, time 3 day): 3%
- Neu (72 h, time 3 day): 16%
- PT (72 h, time 3 day): 12 s
- Plat (72 h, time 3 day): 117.3 x10_4/uL
- RBC (72 h, time 3 day): 631.4 x10_4/ul
- Ret (72 h, time 3 day): 4.8%
- WBC (72 h, time 3 day): 85 x10_2/uL
- KIDNEY_L [1]: 1 g
- KIDNEY_R [1]: 1 g
- KIDNEY_TOTAL [1]: 2 g
- LIVER (72 h, tissue Liver, time 3 day): 12 g
- A/G [2]: 1.6
- ALP [2]: 907.8 IU/L
- ALT [2]: 41.2 IU/L
- AST [2]: 69.4 IU/L
- BUN [2]: 14.8 mg/dL
- CRE [2]: 0.4 mg/dL
- Ca [2]: 11 mg/dL
- Cl [2]: 103.6 meq/L
- DBIL [2]: 0.098 mg/dL
- GLC [2]: 198.4 mg/dL
- IP [2]: 8 mg/dL
- K [2]: 4 meq/L
- LDH [2]: 216.6 IU/L
- Na [2]: 140.6 meq/L
- PL [2]: 148.4 mg/dL
- RALB [2]: 3.4 g/dL
- TBIL [2]: 0.2 mg/dL
- TC [2]: 80 mg/dL
- TG [2]: 107.4 mg/dL
- TP [2]: 5.6 g/dL
- gamma-GTP [2]: 1.4 IU/L
- TERMINAL_BW ([…], time 7 day): 264.9 g
- TERMINAL_BW ([…], time 14 day): 314.9 g
- TERMINAL_BW ([…], time 28 day): 379.9 g
- APTT ([…], time 7 day): 19.6 s
- Bas ([…], time 7 day): 0%
- Eos ([…], time 7 day): 0.8%
- Fbg ([…], time 7 day): 216.8 mg/dL
- Hb ([…], time 7 day): 13.9 g/dL
- Ht ([…], time 7 day): 39.1%
- Lym ([…], time 7 day): 82.2%
- MCH ([…], time 7 day): 21.7 pg
- MCHC ([…], time 7 day): 35.5%
- MCV ([…], time 7 day): 61.2 fL
- Mono ([…], time 7 day): 1.6%
- Neu ([…], time 7 day): 12.8%
- PT ([…], time 7 day): 12.5 s
- Plat ([…], time 7 day): 121.8 x10_4/uL
- RBC ([…], time 7 day): 639.4 x10_4/ul
- Ret ([…], time 7 day): 5%
- WBC ([…], time 7 day): 99 x10_2/uL
- APTT ([…], time 14 day): 18.9 s
- Bas ([…], time 14 day): 0%
- Eos ([…], time 14 day): 1%
- Fbg ([…], time 14 day): 234.2 mg/dL
- Hb ([…], time 14 day): 14.5 g/dL
- Ht ([…], time 14 day): 40.3%
- Lym ([…], time 14 day): 77.8%
- MCH ([…], time 14 day): 21.2 pg
- MCHC ([…], time 14 day): 36.1%
- MCV ([…], time 14 day): 58.7 fL
- Mono ([…], time 14 day): 2.4%
- Neu ([…], time 14 day): 18%
- PT ([…], time 14 day): 12.1 s
- Plat ([…], time 14 day): 118.7 x10_4/uL
- RBC ([…], time 14 day): 686 x10_4/ul
- Ret ([…], time 14 day): 4.3%
- WBC ([…], time 14 day): 87.7 x10_2/uL
- APTT ([…], time 28 day): 19.8 s
- Bas ([…], time 28 day): 0%
- Eos ([…], time 28 day): 1.2%
- Fbg ([…], time 28 day): 234.2 mg/dL
- Hb ([…], time 28 day): 15.5 g/dL
- Ht ([…], time 28 day): 43.3%

Source: ChEMBL document CHEMBL3885861, “Open TG-GATES”
